The values below come from paper PMC6934184, “Selective DNA-PKcs inhibition extends the therapeutic index of localized radiotherapy and chemotherapy” (The Journal of Clinical Investigation, 2019).

This test deals with T1, NTRK1 (TRKA) (Homo sapiens, UniProt P04629).
T1 construct: purchased Thermo Fisher Scientific (Life Technologies) SelectScreen
Kind of test: SelectScreen Z'LYTE. Type of test: biochemical. The procedure, abridged:
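NU5455 was profiled across the SelectScreen Broad panel of kinase activity and binding assays. Z'LYTE reactions such as CSF1R ran at apparent Km ATP, while the Adapta CAMK1 assay used ATP listed as 10. Values are given as percent.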

Structures are written as SMILES.

T1 sequence (P04629 33-796): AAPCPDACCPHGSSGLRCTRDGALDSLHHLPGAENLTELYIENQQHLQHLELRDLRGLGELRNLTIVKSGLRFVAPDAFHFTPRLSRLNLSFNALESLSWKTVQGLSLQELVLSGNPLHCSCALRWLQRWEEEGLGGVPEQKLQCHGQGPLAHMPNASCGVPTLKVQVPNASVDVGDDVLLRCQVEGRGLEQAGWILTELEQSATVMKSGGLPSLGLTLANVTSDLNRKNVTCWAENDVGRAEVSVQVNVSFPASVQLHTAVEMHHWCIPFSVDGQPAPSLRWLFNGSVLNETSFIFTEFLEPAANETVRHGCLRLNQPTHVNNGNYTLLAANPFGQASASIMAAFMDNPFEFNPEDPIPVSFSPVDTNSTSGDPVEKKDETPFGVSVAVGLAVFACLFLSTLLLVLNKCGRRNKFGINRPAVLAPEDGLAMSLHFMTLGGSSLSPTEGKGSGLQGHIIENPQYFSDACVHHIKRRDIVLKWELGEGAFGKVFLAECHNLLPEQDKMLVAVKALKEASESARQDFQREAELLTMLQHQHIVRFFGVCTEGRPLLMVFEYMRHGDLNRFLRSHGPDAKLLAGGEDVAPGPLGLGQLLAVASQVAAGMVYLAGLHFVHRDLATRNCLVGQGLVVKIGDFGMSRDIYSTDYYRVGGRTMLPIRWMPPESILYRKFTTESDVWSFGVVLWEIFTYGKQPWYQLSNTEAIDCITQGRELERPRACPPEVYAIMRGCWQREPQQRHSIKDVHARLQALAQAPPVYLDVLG

For `CN(C(=O)CN1CCOCC1)c1ccc2sc3c(-c4cccc5c(=O)cc(N6CC7CCC(C6)O7)oc45)cccc3c2c1` [NU5455], the inhibition at 1 µM was found to be 1.3%.
